The text below walks through data of US20250025568A1, “COMBINATION OF ANTIBODY-DRUG CONJUGATE AND PARP1 SELECTIVE INHIBITOR” (AstraZeneca UK Limited, priority 2021, published 2025).

In test [1] the test system is BRCA2 −/− DLD-1. The conditions noted are these: 4 day compound dosing; read-out: BRCA2 −/− DLD-1 prolif 4 d IC50; cited from earlier work.
In test [2] the test system is CTG-3718 ovarian PDX. In words: Antitumor test in vivo, CTG-3718 xenograft model (Example 8). Details: species or system nude mice. An excerpt:
The human patient-derived xenograft (PDX) model, CTG-3718, was established from fragments of freshly resected tumor of an ovarian cancer patient who relapsed on treatment with PARP inhibitor talazoparib. This PDX was obtained in accordance with appropriate consent procedures. This ovarian PDX model was subcutaneously passaged in vivo as fragments from animal to animal in nude mice. When tumors reached approximately 250 mm^3, similar-sized tumors were randomly assigned to treatment groups as shown in Table 14: […]

For test [3], the system named is NCI-N87 xenograft (gastric cancer cell line). The test is described as follows: Antitumor test (dose regimen optimization) in vivo, NCI-N87 xenograft model (Example 7). Details: species or system Female Nude mice. The protocol: Female Nude mice (Charles River) aged 5-8 weeks were used, following 7 days acclimatisation before entry into the study. 5×10^6 NCI-N87 tumor cells (gastric cancer cell line) (1:1 in Matrigel) were implanted subcutaneously onto the flank of the female Nude mice. When tumors reached approximately 250 mm^3, similar-sized tumors were randomly assigned to treatment groups as shown in Table 12:
The dose of compound for each animal was calculated based on the individual body weight on the day of dosing. […]

For test [4] the test system is unchanged. The test is described as follows: Antitumor test (dose titration) in vivo, NCI-N87 xenograft model (Example 6). Details: species or system Female Nude mice. The protocol: Female Nude mice (Charles River) aged 5-8 weeks were used, following 7 days acclimatisation before entry into the study. 5×10^6 NCI-N87 tumor cells (gastric cancer cell line) (1:1 in Matrigel) were implanted subcutaneously onto the flank of the female Nude mice. When tumors reached approximately 250 mm^3, similar-sized tumors were randomly assigned to treatment groups as shown in Table 10:
The dose of compound for each animal was calculated based on the individual body weight on the day of dosing. DS-1062 and AZD5305 were dosed on the same day, with DS-1062 being administered approximately 5 hour post the PO dose of AZD5305. DS-1062 was administered as a single dose at 10 mg/kg on day 1, and AZD5305 was administered at 1, 0.1 or 0.01 mg/kg QD for 21 days. Duration of dosing was for 21 days.

The subject of test [5] is CTG-3303 TNBC PDX. In words: Antitumor test in vivo, TNBC patient derived xenograft model (Example 5). To be noted: for TGI % day 46: CTG-3303 TNBC PDX; for percentage of mice achieving a complete response (tumor volume <20 mm^3): day 46 post treatment. Details: species or system Female Nude mice. An excerpt: Female Nude mice (Charles River) aged 5-8 weeks were used, following 7 days acclimatisation before entry into the study. The human patient-derived xenograft (PDX) model, CTG-3303, was established from fragments of freshly resected tumor of a triple negative breast cancer (TNBC) patient whom relapsed on treatment with PARP inhibitor talazoparib. This PDX was obtained in accordance with appropriate consent procedures. This TNBC PDX model was subcutaneously passaged in vivo as fragments from animal to animal in nude mice. When tumors reached approximately 250 mm^3, similar-sized tumors were randomly assigned to treatment groups as shown in Table 8:
(§1) The dose of compound for each animal was calculated based on the individual body weight on the day of dosing. DS-1062 and AZD5305 were dosed on the same day, with DS-1062 being administered approximately 5 hour post the PO dose of AZD5305. DS-1062 was administered as a single dose at 10 mg/kg on day 1, and AZD5305 was administered at 1 mg/kg QD for 21 days. Duration of dosing was for 21 days.
(§2) Tumor growth inhibition (TGI) was calculated as follows:
(§3) where MTV=mean tumor volume.
(§4) Statistical significance was evaluated using one-tailed t-test of (log (relative tumor volume)=log (final vol/start vol)) at the day of final measure, comparing to vehicle control.
In addition, the percentage of mice in each treatment group achieving a complete response (defined as tumor volume <20 mm^3) at day 46 post treatment were calculated and shown in FIG. 19B. Monotherapy with DS-1062 at 10 mg/kg led to 1 out 8 mice (12.5%) achieving a complete response at day 46 post treatment. AZD5305 monotherapy led to 0 out 8 mice (0%) achieving a complete response at day 46 post treatment. Combination treatment of AZD5305 with DS-1062 at 10 mg/kg led to 2 out 8 mice (25%) achieving a complete response at day 46 post treatment and led to higher complete response rates than either respective monotherapy.
Background: In xenograft studies the graft and the host belong to different species.

Test [6] concerns WT DLD-1. The conditions noted are these: 4 day compound dosing; read-out: WT DLD-1 prolif 4 d IC50; cited from earlier work.
Test [7] deals with NCI-N87 xenograft (gastric cancer cell line). In words: Antitumor test in vivo, NCI-N87 xenograft model (Example 4). Details: species or system Female Nude mice. The protocol:
Female Nude mice (Charles River) aged 5-8 weeks were used, following 7 days acclimatisation before entry into the study. 5×10^6 NCI-N87 tumor cells (gastric cancer cell line) (1:1 in Matrigel) were implanted subcutaneously onto the flank of the female Nude mice. When tumors reached approximately 250 mm^3, similar-sized tumors were randomly assigned to treatment groups as shown in Table 6:
as §1, §2, §3, §4

Test [8] addresses hERG (Homo sapiens, UniProt Q12809). The conditions noted are these: cited from earlier work.
The mark [9] stands for this setting: AZD5305 1 mg/kg PO QD for 21 days, 1 mg/kg.
[10] abbreviates: DS-1062 10 mg/kg IV single dose, 10 mg/kg.

hERG, sequence (Q12809 whole entry): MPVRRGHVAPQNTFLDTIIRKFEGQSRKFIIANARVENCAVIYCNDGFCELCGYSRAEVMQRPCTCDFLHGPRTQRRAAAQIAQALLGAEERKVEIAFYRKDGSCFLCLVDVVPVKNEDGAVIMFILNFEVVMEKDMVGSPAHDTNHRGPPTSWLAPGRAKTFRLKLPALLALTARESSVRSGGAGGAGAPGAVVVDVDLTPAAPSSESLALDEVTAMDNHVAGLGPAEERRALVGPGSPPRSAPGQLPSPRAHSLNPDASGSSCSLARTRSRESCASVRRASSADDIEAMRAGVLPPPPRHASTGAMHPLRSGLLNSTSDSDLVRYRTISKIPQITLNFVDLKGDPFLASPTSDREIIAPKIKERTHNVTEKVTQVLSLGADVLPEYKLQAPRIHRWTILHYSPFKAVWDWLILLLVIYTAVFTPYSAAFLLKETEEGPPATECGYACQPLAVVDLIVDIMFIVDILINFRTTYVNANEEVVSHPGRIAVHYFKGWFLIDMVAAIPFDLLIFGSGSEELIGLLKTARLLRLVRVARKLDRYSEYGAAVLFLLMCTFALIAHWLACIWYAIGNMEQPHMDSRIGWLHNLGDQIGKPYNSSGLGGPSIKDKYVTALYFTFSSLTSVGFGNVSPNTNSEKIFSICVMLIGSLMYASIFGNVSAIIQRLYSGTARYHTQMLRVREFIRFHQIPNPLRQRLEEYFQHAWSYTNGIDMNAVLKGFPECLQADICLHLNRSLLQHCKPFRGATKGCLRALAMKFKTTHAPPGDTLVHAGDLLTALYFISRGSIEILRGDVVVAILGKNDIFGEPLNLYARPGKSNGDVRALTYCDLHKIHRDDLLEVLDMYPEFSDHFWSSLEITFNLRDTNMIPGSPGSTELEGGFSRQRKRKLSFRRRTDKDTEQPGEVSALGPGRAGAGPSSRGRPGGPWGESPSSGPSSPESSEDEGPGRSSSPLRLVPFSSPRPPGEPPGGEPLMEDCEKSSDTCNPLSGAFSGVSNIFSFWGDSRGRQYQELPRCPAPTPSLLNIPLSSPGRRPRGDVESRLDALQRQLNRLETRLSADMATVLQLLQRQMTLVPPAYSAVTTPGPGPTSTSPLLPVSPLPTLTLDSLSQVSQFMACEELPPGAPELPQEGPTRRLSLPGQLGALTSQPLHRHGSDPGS

As to `CCc1cc2ncc(CN3CCN(c4ccc(C(=O)NC)nc4)CC3)cc2[nH]c1=O` [Example 4, 5-[4-[(7-ethyl-6-oxo-5H-1,5-naphthyridin-3-yl)methyl]piperazin-1-yl]-N-methyl-pyridine-2-carboxamide], the IC50 was more than 0.017 µM in test [1] and more than 30 µM in test [6]. Further, the “TGI % day 28” value in test [2] (AZD5305 0.1 mg/kg PO QD (21 days), 0.1 mg/kg) was −16%. In test [3] (AZD5305 1 mg/kg PO QD (21 days), 1 mg/kg), the “TGI % day 52” value is 26%. In addition, the “TGI % day 49” value in test [4] (setting [9]) is given as 18%. Moreover, the “TGI % day 46” value in test [5] (setting [9]) is on record as 28%. In test [5] (AZD5305 1 mg/kg QD), the “percentage of mice achieving a complete response (tumor volume <20 mm^3)” value was 0%. In addition, in test [7] (setting [9]), the “TGI % day 19” value stood at 22%.

As to `CNC(=O)c1ccc(N2CCN(Cc3ccc4nc(CC(F)F)c(=O)[nH]c4c3)CC2)c(F)n1` [Example 24, 5-[4-[[2-(2,2-difluoroethyl)-3-oxo-4H-quinoxalin-6-yl]methyl]piperazin-1-yl]-6-fluoro-N-methyl-pyridine-2-carboxamide], the results for the IC50 in test [1] and in test [6] were 0.01 µM and 14 µM, respectively.

On to `CNC(=O)c1ccc(N2CCN(Cc3ccc4nc(CCF)c(=O)[nH]c4c3)CC2)c(F)n1` [Example 26, 6-fluoro-5-[4-[[2-(2-fluoroethyl)-3-oxo-4H-quinoxalin-6-yl]methyl]piperazin-1-yl]-N-methyl-pyridine-2-carboxamide], for which the IC50 in test [1] was 0.005 µM; in test [6] it was 23 µM.

Take `CNC(=O)c1ccc(N2CCN(Cc3ccc4nc(CC(F)(F)F)c(=O)[nH]c4c3)CC2)cn1` [Example 27, N-methyl-5-[4-[[3-oxo-2-(2,2,2-trifluoroethyl)-4H-quinoxalin-6-yl]methyl]piperazin-1-yl]pyridine-2-carboxamide]: the IC50 in test [1] was 10.3 µM; in test [6] it was more than 10 µM.

As for `CNC(=O)c1ccc(N2CCN(Cc3ccc4nc(CC(F)(F)F)c(=O)[nH]c4c3)CC2)c(F)n1` [Example 28, 6-fluoro-N-methyl-5-(4-((3-oxo-2-(2,2,2-trifluoroethyl)-3,4-dihydroquinoxalin-6-yl)methyl)piperazin-1-yl) picolinamide], the IC50 in test [1] is 0.027 µM; in test [6] it was more than 30 µM.

For `CCc1cc2ncc(CN3CCN(c4ccc(C(=O)NC)nc4C(F)F)CC3)cc2[nH]c1=O` [Example 29, 6-(difluoromethyl)-5-[4-[(7-ethyl-6-oxo-5H-1,5-naphthyridin-3-yl)methyl]piperazin-1-yl]-N-methyl-pyridine-2-carboxamide], the IC50 in test [1] was 0.007 µM; in test [6], more than 30 µM.

As to `CCc1cc2ncc(CN3CCN(c4ccc(C(=O)NC)nc4C(F)(F)F)CC3)cc2[nH]c1=O` [Example 30, 5-[4-[(7-ethyl-6-oxo-5H-1,5-naphthyridin-3-yl)methyl]piperazin-1-yl]-N-methyl-6 (trifluoromethyl)pyridine-2-carboxamide], the results for the IC50 in test [1], in test [6] and in test [8] were 0.004 µM, more than 30 µM and more than 40 µM, respectively.

B1: DS-1062: anti-TROP2 antibody-drug conjugate; exatecan-derivative drug-linker conjugated to the anti-TROP2 antibody via a thioether bond; DAR ~4 (conjugate, chains of the INN, looked up)
VH: QVQLVQSGAEVKKPGASVKVSCKASGYTFTTAGMQWVRQAPGQGLEWMGWINTHSGVPKYAEDFKGRVTISADTSTSTAYLQLSSLKSEDTAVYYCARSGFGSSYWYFDVWGQGTLVTVSS
VL: DIQMTQSPSSLSASVGDRVTITCKASQDVSTAVAWYQQKPGKAPKLLIYSASYRYTGVPSRFSGSGSGTDFTLTISSLQPEDFAVYYCQQHYITPLTFGQGTKLEIK
modifications: exatecan-derivative drug-linker, DAR ~4
In the case of B1, the “TGI % day 28” value in test [2] (setting [10]) is on record as 72%. In addition, the “TGI % day 52” value in test [3] (setting [10]) is 84%. The “TGI % day 49” value in test [4] (setting [10]) is recorded as 75%. Also, the “TGI % day 46” value in test [5] (setting [10]) is reported as 88%. Besides, the “percentage of mice achieving a complete response (tumor volume <20 mm^3)” value in test [5] (DS-1062 10 mg/kg) is on record as 12.5%. Besides, the “TGI % day 19” value in test [7] (setting [10]) is 82%.
